US8415469B2, “Compounds and methods for kinase modulation, and indications therefor” (Plexxikon Inc., priority 2005, dated 2013)

How the values were obtained:
Format in all cases: biochemical
B-Raf = target: T1, B-Raf (Homo sapiens, UniProt P15056); test: AlphaScreen kinase assay, B-Raf; conditions: read-out: IC50, activity toward kinase B-Raf
T1 construct: purchased Upstate Biotechnology

B-Raf V600E = target: T2, B-Raf V600E (Homo sapiens, UniProt P15056, V600E); test: AlphaScreen kinase assay, B-Raf V600E; conditions: read-out: IC50, activity toward kinase B-Raf V600E
T2 construct: P4254. pFastBacBD-CDC37 BRAF D437-K722-X, V600E; His6 with pFastBac HT leader (TEV site) (N); made in house; host or cells: Sf9 (baculovirus; chaperone CDC37 co-expressed)
T2 sequence (P15056 with tags, fused parts or gaps V600E): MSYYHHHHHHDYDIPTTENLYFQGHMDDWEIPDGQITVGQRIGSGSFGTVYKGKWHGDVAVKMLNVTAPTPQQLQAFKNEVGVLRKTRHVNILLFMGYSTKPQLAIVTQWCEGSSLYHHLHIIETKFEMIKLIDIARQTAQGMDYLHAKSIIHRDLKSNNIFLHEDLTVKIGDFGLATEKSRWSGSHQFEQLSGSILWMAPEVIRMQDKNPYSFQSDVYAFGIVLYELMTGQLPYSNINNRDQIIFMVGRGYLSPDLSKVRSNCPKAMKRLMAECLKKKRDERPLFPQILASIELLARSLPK

Btk = target: T3, Btk (Homo sapiens, UniProt Q06187); test: Z'-Lyte FRET kinase assay (Invitrogen), Btk; conditions: read-out: IC50, activity toward kinase Btk
T3 construct: purchased Invitrogen (assay run by Invitrogen)
T3 sequence (Q06187 whole entry): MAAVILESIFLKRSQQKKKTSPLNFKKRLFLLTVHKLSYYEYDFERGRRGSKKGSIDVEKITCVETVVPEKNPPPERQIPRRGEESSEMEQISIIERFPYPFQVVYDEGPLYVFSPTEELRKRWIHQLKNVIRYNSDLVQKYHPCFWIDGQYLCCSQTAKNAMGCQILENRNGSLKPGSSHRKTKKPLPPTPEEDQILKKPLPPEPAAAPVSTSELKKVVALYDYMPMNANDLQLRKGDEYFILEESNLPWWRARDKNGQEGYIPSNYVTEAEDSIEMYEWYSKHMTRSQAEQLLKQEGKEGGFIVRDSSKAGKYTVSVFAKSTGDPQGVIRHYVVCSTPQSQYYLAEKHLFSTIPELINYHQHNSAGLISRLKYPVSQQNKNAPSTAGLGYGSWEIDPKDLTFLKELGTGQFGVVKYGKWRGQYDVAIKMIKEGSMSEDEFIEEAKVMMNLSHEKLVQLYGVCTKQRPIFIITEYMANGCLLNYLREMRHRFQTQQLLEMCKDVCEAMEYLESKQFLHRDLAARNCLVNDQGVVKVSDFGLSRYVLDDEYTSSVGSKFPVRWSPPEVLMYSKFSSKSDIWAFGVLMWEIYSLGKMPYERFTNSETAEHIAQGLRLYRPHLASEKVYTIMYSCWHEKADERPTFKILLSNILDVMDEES

c-Raf-1 = target: T4, c-Raf-1 (Homo sapiens, UniProt P04049); test: AlphaScreen kinase assay, c-Raf-1; conditions: read-out: IC50, activity toward kinase c-Raf-1
T4 construct: purchased Upstate Biotechnology

Fak = target: T5, Fak (Homo sapiens, UniProt Q05397); test: AlphaScreen kinase assay, Fak; conditions: read-out: IC50, activity toward kinase Fak
T5 construct: P1358.pFastBacHtb FAK S411-Q686-X; His6 with pFastBacHTb leader (TEV site) (N); made in house; host or cells: Sf9 (baculovirus)
T5 sequence (Q05397 411-686): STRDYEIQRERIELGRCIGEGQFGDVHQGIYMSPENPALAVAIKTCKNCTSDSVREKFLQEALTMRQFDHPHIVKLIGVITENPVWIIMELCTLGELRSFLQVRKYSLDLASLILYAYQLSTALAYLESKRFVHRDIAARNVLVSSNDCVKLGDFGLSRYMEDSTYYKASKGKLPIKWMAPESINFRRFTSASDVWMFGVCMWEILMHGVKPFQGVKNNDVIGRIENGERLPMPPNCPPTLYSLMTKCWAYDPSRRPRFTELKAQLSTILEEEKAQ
Description: (§1) AlphaScreen assays were done using compounds dissolved in DMSO to a concentration of 20 mM. The compounds were diluted accordingly to the desired final concentrations in each sample well, using 1:3 serial dilution for a total of 8 concentration points. Plates were prepared such that each kinase reaction is 20 μl in 1× kinase buffer, 5% DMSO and 10 μM ATP. After incubation of the kinase reaction for 1 hour at room temperature, 5 μl of donor beads in stop buffer (50 mM EDTA in 1× kinase buffer) was added, the sample was mixed and incubated for 20 minutes at room temperature before adding 5 μl of acceptor beads in stop buffer. The samples were incubated for 60 minutes at room temperature and the signal per well was read on AlphaQuest reader.

FGFR1 = target: T6, FGFR1 (Homo sapiens, UniProt P11362, C488A/C584S); test: AlphaScreen kinase assay, FGFR1; conditions: read-out: IC50, activity toward kinase FGFR
T6 construct: P1351.pET N6 BI-PTP FGFR A458-E765-X C488A, C584S; made in house; host or cells: E. coli (PTP1B co-expressed)
Description: as §1

Flt1 = target: T7, Flt1 (Homo sapiens, UniProt P17948); test: AlphaScreen kinase assay, Flt1; conditions: read-out: IC50, activity toward kinase Flt1
T7 construct: P1826.pETN6 BI-PTP FLT1 M799-D1165-X WT; His6 (N); made in house; host or cells: E. coli (PTP1B co-expressed)
T7 sequence (P17948 with tags, fused parts or gaps): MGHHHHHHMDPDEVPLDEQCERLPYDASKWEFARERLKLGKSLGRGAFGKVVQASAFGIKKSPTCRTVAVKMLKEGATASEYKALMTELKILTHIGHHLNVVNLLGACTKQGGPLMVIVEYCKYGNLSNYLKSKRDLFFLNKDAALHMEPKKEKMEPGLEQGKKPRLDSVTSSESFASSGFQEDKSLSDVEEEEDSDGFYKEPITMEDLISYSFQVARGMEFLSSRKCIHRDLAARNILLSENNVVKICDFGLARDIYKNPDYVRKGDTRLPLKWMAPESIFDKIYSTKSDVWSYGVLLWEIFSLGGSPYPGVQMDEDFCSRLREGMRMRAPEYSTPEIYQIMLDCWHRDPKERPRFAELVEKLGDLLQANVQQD

Fms = target: T8, Fms (Homo sapiens, UniProt P07333); test: AlphaScreen kinase assay, Fms; conditions: read-out: IC50, activity toward kinase Fms
T8 construct: purchased Upstate Biotechnology

Jnk1 = target: T9, Jnk1 (Homo sapiens, UniProt P45983); test: AlphaScreen kinase assay, Jnk1; conditions: read-out: IC50, activity toward kinase Jnk1
T9 construct: purchased Upstate Biotechnology
T9 sequence (P45983 whole entry): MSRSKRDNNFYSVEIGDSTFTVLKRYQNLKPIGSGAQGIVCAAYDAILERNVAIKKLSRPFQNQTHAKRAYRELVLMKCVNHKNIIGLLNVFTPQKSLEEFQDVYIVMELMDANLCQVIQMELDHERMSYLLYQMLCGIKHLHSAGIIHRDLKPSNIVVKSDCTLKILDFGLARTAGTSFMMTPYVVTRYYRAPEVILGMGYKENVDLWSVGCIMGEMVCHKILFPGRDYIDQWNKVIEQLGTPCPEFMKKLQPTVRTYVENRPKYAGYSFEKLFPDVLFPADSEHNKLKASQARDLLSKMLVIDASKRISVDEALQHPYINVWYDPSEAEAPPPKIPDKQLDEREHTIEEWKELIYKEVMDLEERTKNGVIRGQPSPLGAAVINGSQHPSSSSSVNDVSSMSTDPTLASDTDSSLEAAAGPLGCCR

Jnk3 = target: T10, Jnk3 (Homo sapiens, UniProt P53779); test: AlphaScreen kinase assay, Jnk3; conditions: read-out: IC50, activity toward kinase Jnk3
T10 construct: purchased Upstate Biotechnology

Kdr = target: T11, Kdr (Homo sapiens, UniProt P35968); test: Z'-Lyte FRET kinase assay (Invitrogen), Kdr; conditions: read-out: IC50, activity toward kinase Kdr
T11 construct: purchased Invitrogen (assay run by Invitrogen)
T11 sequence (P35968 20-1356): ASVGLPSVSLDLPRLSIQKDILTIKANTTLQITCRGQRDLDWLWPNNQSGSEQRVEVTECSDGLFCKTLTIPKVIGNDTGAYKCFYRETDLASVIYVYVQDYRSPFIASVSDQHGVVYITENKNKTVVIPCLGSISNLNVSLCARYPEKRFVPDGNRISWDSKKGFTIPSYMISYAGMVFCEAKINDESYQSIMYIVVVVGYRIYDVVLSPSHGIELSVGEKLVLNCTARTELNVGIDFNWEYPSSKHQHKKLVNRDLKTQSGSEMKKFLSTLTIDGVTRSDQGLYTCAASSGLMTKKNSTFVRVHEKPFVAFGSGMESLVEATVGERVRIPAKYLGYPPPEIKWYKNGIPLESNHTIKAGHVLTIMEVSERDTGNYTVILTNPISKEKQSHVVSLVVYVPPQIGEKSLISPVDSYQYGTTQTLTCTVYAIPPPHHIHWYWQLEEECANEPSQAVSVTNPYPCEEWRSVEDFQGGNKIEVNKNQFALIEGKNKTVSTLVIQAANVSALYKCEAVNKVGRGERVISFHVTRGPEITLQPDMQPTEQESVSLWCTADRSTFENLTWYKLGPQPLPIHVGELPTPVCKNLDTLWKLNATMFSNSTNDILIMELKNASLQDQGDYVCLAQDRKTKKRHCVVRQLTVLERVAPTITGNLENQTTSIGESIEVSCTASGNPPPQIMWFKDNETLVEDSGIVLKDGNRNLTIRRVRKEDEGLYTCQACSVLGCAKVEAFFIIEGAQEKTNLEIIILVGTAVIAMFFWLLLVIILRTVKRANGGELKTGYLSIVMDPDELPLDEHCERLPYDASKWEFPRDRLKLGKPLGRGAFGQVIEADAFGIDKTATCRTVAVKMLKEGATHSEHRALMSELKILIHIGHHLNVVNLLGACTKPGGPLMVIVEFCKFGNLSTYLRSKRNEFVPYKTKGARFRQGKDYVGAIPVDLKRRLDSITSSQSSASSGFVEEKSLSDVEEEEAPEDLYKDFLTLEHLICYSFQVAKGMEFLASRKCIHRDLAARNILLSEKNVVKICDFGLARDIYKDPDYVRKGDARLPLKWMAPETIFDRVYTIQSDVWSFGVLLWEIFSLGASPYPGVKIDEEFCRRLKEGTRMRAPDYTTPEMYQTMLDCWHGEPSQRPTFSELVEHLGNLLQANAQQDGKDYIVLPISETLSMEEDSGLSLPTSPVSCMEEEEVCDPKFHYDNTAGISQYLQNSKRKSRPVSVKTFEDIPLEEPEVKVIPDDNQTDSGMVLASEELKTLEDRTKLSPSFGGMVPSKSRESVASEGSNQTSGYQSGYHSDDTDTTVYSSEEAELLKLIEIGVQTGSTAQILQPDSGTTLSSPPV

Kit = target: T12, Kit (Homo sapiens, UniProt P10721); test: AlphaScreen kinase assay, Kit; conditions: read-out: IC50, activity toward kinase Kit
T12 construct: P1332.N6 BI PTP KIT M552-K948-X COD; His6 (N); made in house; host or cells: E. coli (PTP1B co-expressed)

PKC theta = target: T13, PKC theta (Homo sapiens, UniProt Q04759); test: Z'-Lyte FRET kinase assay (Invitrogen), PKC theta; conditions: read-out: IC50, activity toward kinase PKC theta
T13 construct: purchased Invitrogen (Carlsbad, Calif.), screening service
T13 sequence (Q04759 whole entry): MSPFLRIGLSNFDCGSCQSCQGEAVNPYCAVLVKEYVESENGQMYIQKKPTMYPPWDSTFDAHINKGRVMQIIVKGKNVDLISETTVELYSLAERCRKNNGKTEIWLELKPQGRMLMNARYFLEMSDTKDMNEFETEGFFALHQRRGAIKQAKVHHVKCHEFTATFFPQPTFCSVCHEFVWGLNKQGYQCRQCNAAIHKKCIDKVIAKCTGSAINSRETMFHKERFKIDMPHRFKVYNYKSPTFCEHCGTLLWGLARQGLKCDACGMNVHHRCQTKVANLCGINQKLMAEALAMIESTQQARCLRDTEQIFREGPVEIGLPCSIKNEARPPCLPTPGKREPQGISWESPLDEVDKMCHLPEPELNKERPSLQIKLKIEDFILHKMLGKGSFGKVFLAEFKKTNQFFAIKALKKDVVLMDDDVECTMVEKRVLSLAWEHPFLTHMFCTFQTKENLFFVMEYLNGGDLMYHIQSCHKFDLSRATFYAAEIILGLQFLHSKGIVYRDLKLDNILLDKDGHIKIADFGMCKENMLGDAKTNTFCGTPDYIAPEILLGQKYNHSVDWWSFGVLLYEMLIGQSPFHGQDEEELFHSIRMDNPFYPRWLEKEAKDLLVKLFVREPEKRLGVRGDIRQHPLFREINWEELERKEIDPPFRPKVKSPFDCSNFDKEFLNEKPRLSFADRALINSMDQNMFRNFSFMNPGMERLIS
Description: The effect of potential modulators of kinase activity can be measured in a variety of different assays known in the art. For example, direct radiometric, indirect FRET or AlphaScreen assays may be used to assess the level of phosphorylation of a substrate in the presence of test compounds in order to determine the inhibitory affect of the compound on the kinase. Invitrogen (Carlsbad, Calif.) uses a FRET based assay for Btk, EGFR, EphB2, Flt3, lrak4, Kdr, MAP2K1, MAPKAPK2, PDGFRB, PKC theta, Stk6 and Yes. For these assays, compounds of the invention were screened by Invitrogen using Z′-Lyte™ kinase assay.
Briefly, the Invitrogen kinase assay involves use of a specific peptide substrate optimized for each kinase, containing a fluorophore at each end that make up the FRET pair. The peptide sensitivity to proteolytic cleavage depends on phosphorylation of the peptide. Non-phosphorylated peptide is cleaved by a protease while peptide phosphorylated by the kinase is not cleaved. Cleavage of the peptide disrupts the FRET between the donor (coumarin) and acceptor (fluorescein) fluorophores, resulting in an increase in the ratio of donor emission to acceptor emission. The emission ratio of coumarin to fluorescein is used to assess the reaction progress. The extent of phosphorylation is determined from the emission ratio, which is low when the kinase is active (phosphorylated peptide is not cleaved, FRET pair connected) or higher for inhibited kinase (non-phosphorylated peptide is cleaved, FRET pair separated). Thus, the assay involves a kinase reaction in the presence of varying concentrations of a given compound, a development reaction with site specific protease, and detection of the fluorescent emission ratio of coumarin and fluorscein. […] Reaction conditions for each kinase are determined to provide optimal reaction times, incubation temperature, kinase and ATP concentrations. Test samples are made up in 1× kinase buffer (50 mM HEPES pH 7.5, 50 mM MgCl2, 5 mM EGTA, 0.05% BRIJ-35) and compound at desired concentration prepared in DMSO such that the final DMSO is 1%. […] Typically, assay plates are prepared to 10 μl final volume per sample, adding 2.5 μl of compound at 4× the desired concentration in 4% DMSO (serial dilution of compound provides concentration curve), 5 μl of the desired kinase mixed with Z′-LYTE™ peptide substrate (2× in 2× kinase buffer, final peptide at 2 μM), and 2.5 μl of 4×ATP solution. All kinase except for MAP2K1 were at 10 μM ATP in the kinase reaction, while MAP2K1 was at 100 μM. Samples are mixed and the kinase reaction is incubated 1 hour at room temperature, after which 5 μl of development solution is added and mixed. After incubation for another 1 hour at room temperature, 5 μl of stop reagent is added to each sample and mixed. The fluorescence signals are measured to determine the emission ratio.

Pyk2 = target: T14, Pyk2 (Homo sapiens, UniProt Q14289); test: AlphaScreen kinase assay, Pyk2; conditions: read-out: IC50, activity toward kinase Pyk2
T14 construct: purchased Upstate Biotechnology

Src = target: T15, Src (Homo sapiens, UniProt P12931); test: AlphaScreen kinase assay, Src; conditions: read-out: IC50, activity toward kinase Src
T15 construct: P1144. pET-N6 BI-PTP SRC V86-L536-X; made in house

Yes = target: T16, Yes (Homo sapiens, UniProt P07947); test: Z'-Lyte FRET kinase assay (Invitrogen), Yes; conditions: read-out: IC50, activity toward kinase Yes
T16 construct: purchased Invitrogen (Carlsbad, Calif.), screening service
Outline: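 Each kinase phosphorylated a FRET peptide (2 μM) at 10 μM ATP in 50 mM HEPES pH 7.5, 50 mM MgCl2, 5 mM EGTA, 0.05% BRIJ-35 with 1% DMSO, 1 h at room temperature. After a 1 h protease development step, coumarin/fluorescein emission ratio was read across serial compound dilutions.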

Akt3 = Akt3 (Homo sapiens, UniProt Q9Y243); test: AlphaScreen kinase assay, Akt3; conditions: read-out: IC50, activity toward kinase Akt3
Akt3, sequence (Q9Y243 whole entry): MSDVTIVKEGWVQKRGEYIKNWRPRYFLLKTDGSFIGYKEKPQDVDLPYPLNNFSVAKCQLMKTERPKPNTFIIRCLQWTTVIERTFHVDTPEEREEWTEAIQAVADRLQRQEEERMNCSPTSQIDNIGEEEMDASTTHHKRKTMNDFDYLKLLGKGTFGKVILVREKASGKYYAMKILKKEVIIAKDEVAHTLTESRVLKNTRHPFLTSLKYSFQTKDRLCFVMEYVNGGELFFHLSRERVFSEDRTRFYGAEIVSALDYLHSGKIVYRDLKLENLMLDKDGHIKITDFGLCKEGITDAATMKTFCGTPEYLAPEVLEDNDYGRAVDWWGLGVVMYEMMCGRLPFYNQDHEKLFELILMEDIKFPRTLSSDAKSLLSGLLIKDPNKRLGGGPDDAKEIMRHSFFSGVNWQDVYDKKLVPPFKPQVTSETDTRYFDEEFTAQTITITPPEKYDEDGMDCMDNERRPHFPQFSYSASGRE
Outline: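 Inhibition reads as diminished acceptor emission, since unphosphorylated peptide fails to bridge antibody acceptor beads and streptavidin donor beads. Titration: eight points, 1:3 steps, stocks at 20 mM in DMSO.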

IKK beta = target: T17, IKK beta (Homo sapiens, UniProt O14920); test: AlphaScreen kinase assay, IKK beta; conditions: read-out: IC50, activity toward kinase IKK beta
T17 sequence (O14920 1-756): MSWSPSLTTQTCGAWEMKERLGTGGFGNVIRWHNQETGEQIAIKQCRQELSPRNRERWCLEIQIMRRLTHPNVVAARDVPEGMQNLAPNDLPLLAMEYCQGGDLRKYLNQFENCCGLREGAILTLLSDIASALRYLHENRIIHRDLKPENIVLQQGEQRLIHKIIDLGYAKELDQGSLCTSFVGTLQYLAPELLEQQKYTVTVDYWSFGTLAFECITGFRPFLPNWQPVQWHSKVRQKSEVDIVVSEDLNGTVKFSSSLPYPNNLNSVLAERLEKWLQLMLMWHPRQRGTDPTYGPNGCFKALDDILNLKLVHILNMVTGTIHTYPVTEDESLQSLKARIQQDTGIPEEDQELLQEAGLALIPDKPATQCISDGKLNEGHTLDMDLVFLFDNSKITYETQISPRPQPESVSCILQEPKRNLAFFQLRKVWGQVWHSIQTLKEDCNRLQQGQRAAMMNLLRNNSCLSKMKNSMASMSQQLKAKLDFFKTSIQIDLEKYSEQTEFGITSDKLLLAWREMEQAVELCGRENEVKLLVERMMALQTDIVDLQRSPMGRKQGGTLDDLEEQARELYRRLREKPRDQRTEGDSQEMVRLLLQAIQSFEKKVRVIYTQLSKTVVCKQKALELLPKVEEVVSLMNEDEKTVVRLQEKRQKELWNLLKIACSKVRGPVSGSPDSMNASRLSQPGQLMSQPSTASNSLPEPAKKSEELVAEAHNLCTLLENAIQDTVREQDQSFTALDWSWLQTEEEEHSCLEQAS

Itk = target: T18, Itk (Homo sapiens, UniProt Q08881); test: AlphaScreen kinase assay, Itk; conditions: read-out: IC50, activity toward kinase Itk
T18 sequence (Q08881 1-620): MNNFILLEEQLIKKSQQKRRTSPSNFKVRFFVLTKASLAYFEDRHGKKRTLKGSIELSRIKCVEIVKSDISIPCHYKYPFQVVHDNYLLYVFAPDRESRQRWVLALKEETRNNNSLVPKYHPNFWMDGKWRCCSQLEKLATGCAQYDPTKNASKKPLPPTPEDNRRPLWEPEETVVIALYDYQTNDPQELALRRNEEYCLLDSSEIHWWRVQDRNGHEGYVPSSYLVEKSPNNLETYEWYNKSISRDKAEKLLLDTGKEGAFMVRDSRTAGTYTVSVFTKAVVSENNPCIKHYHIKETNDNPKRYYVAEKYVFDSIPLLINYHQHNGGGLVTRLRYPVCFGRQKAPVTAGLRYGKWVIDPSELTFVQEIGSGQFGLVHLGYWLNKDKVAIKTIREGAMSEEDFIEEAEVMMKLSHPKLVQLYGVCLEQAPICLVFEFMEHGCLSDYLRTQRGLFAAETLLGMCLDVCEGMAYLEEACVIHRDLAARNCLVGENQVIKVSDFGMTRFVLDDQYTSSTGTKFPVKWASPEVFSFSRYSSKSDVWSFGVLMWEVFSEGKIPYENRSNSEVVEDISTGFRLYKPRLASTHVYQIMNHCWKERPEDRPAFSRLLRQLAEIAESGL
Description: AlphaScreen assay was used to screen additional kinases. The assay is similarly dependent on the phosphorylation of a peptide substrate. In this assay, an antibody that recognizes phosphorylated substrate is bound to an acceptor bead. The peptide substrate is attached to biotin, which binds to a donor head that contains streptavidin. Thus phosphorylated substrate is bound by antibody and streptavidin, bringing the donor and acceptor heads into close proximity when kinase is not inhibited. The donor produces singlet oxygen which results in emission from the acceptor when they are in close proximity. Conversely, when kinase is inhibited, the donor and acceptor beads are not associated and the emission from the acceptor is reduced.
AlphaScreen assays were done using compounds dissolved in DMSO to a concentration of 20 mM. The compounds were diluted accordingly to the desired final concentrations in each sample well, using 1:3 serial dilution for a total of 8 concentration points.

Measured: IC50

T1 sequence (P15056 whole entry): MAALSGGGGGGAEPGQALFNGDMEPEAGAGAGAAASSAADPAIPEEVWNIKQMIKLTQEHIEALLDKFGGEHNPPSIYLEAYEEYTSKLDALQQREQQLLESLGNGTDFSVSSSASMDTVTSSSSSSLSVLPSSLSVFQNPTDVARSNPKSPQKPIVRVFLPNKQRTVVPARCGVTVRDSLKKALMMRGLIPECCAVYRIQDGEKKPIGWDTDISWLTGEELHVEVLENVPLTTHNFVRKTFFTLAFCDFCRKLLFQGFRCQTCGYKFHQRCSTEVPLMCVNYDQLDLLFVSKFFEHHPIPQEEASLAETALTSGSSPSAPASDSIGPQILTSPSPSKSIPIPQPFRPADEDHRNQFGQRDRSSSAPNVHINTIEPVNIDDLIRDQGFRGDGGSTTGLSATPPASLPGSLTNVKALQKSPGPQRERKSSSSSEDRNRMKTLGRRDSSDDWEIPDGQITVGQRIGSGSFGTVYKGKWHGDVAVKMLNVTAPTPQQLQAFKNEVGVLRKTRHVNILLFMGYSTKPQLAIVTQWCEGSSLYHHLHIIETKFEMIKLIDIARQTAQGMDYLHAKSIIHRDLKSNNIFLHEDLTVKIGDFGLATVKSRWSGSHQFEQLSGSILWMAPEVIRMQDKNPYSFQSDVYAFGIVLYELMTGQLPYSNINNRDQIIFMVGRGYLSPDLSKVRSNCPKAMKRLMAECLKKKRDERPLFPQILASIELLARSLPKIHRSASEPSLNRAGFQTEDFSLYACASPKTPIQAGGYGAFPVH

O=C(c1ccc(O)cc1Cl)c1c[nH]c2ncc(-c3cccs3)cc12 [Compound P-0112]
not listed: IKK beta | Itk
≤ 10 µM: all other assays above

c1cc(-c2ccc(N3CCNCC3)nc2)c2cc[nH]c2n1 [Compound P-0270]
≤ 10 µM: Kdr | PKC theta | Akt3 | IKK beta

Brc1ccc(Nc2cnc3[nH]ccc3c2)cc1 [Compound P-1067]
≤ 10 µM: B-Raf V600E | Itk
